Measured values published in US10280163B2 (BeiGene, Ltd., priority 2015, dated 2019).
Like-named read-outs stand apart in the source and are kept apart here.

How the values were obtained:
[1] = biological target: T1, Recombinant IDO1 (Homo sapiens, UniProt P14902); assay: IDO1 enzymatic assay; assay type: biochemical; settings: 50 nM IDO1, 1.3 mM D-tryptophan, read-out: Enzyme IC50 (nM) IDO1
T1 construct: His tag (N); made in house; host or cells: E. coli
Summary of the method: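 N-terminally His-tagged enzyme from E. coli (50 nM) was incubated with compound, 1.3 mM D-tryptophan, 5 mM ascorbate, 6.25 μM methylene blue and 0.4 mg/mL catalase in 50 mM potassium phosphate pH 7.5, 0.1% BSA for 1.5 h at 24° C. N′-formylkynurenine formation was followed at 321 nm for 1 h; IC50 from rate slopes.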

[2] = biological target: T2, Recombinant TDO (Homo sapiens, UniProt P48775); assay: TDO enzymatic assay; assay type: biochemical; settings: 100 nM TDO, 0.5 mM L-tryptophan, read-out: Enzyme IC50 (nM) TDO
T2 construct: His tag (C); made in house; host or cells: E. coli
Procedure: Recombinant TDO was overexpressed and purified from E. coli cells with a C-terminal His tag. TDO enzymatic assay was performed using the same methodology as IDO1 enzymatic assay except that 100 nM TDO and 0.5 mM L-tryptophan (Km concentration) were used in the TDO assay.

[3] = biological target: T3, cellular IDO1 in HeLa cells (Homo sapiens, UniProt P14902); assay: HeLa cell-based IDO1 Kyn (kynurenine) production assay; settings: IFN-γ 100 ng/mL, 48 hours
T3 construct: endogenous in cells; host or cells: HeLa cells (American Type Tissue Culture Collection), induced with human recombinant IFN-γ
Summary of the method: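 IFN-γ-induced HeLa cells (100 ng/mL) in phenol red-free DMEM with 0.4 mM L-Trp, compounds added together with IFN-γ, 48 h at 37 °C. Supernatant Kyn read at 480 nm after TCA precipitation and 4-(dimethylamino)benzaldehyde reaction. IC50 from four-parameter logistic fit.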

[4] = Table 1, 5-substituted imidazo[1,5-a]pyridines
[5] = Table 2, 8-substituted imidazo[1,5-a]pyridines

T2 sequence (P48775 whole entry): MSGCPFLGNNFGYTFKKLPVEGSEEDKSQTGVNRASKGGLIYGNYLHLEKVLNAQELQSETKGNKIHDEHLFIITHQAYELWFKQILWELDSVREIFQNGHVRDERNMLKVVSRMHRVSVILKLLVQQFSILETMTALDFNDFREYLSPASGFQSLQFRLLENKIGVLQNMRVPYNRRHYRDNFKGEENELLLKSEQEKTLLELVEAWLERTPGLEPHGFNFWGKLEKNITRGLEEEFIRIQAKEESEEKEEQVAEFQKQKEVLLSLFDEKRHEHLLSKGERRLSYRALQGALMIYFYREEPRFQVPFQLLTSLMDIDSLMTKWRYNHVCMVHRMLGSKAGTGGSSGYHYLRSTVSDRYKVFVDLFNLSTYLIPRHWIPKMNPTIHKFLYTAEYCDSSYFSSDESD
T1 sequence (P14902 whole entry): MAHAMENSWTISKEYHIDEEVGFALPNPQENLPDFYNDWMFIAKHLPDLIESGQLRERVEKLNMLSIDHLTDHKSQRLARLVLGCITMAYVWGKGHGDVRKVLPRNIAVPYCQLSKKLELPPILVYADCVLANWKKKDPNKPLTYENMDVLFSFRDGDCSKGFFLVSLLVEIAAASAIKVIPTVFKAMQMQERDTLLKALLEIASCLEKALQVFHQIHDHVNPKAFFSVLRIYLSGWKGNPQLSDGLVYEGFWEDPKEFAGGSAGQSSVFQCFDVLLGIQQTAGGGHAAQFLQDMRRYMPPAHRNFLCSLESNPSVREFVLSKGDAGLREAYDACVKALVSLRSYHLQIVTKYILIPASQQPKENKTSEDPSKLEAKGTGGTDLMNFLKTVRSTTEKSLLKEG
T3 sequence (P14902 whole entry): as above

IC50 [1, 4] [nM] | IC50 [2, 4] [nM] | EC50 [3, 4] [nM] | IC50 [1, 5] [nM] | IC50 [2, 5] [nM] | EC50 [3, 5] [nM] | Compound
41 | 610 | > 10000 |  |  |  | OC(c1cccc2cncn12)C1CCCCC1 (single isomer, unassigned) [Example A001a]
15 | 73 | 346 |  |  |  | OC(CC1CCCCC1)c1cc(Cl)cc2cncn12 (single isomer, unassigned) [Example A102a]
510 | 1200 | > 10000 |  |  |  | OC(CC1CCCCC1)c1cc(Cl)cc2cncn12 (single isomer, unassigned) [Example A102b]
15 | 97 | 2100 |  |  |  | OC(c1cc(C(F)(F)F)cc2cncn12)C1CCCCC1 (single isomer, unassigned) [Example A109a]
1400 | 1200 | > 10000 |  |  |  | OC(c1cc(C(F)(F)F)cc2cncn12)C1CCCCC1 (single isomer, unassigned) [Example A109b]
890 | 2600 | > 10000 |  |  |  | OC(CC1CCCCC1)c1cc(C(F)(F)F)cc2cncn12 (single isomer, unassigned) [Example A114a]
74 | 170 | 5430 |  |  |  | OC(CC1CCCCC1)c1cc(C(F)(F)F)cc2cncn12 (single isomer, unassigned) [Example A114b]
11 | 610 | 270 |  |  |  | OC(c1c(Cl)ccc2cncn12)C1CCCCC1 (single isomer, unassigned) [Example A116a]
4800 | 67000 | > 10000 |  |  |  | OC(c1c(Cl)ccc2cncn12)C1CCCCC1 (single isomer, unassigned) [Example A116b]
11 | 4100 | 92 |  |  |  | OC(CC1CCCCC1)c1c(Cl)ccc2cncn12 (single isomer, unassigned) [Example A117a]
1600 | 35000 | > 10000 |  |  |  | OC(CC1CCCCC1)c1c(Cl)ccc2cncn12 (single isomer, unassigned) [Example A117b]
14 | 1700 | 346 |  |  |  | OC(c1c(Br)ccc2cncn12)C1CCCCC1 (single isomer, unassigned) [Example A118a]
1600 | 53000 | > 10000 |  |  |  | OC(c1c(Br)ccc2cncn12)C1CCCCC1 (single isomer, unassigned) [Example A118b]
14 | 14000 | 66 |  |  |  | OC(CC1CCCCC1)c1c(Br)ccc2cncn12 (single isomer, unassigned) [Example A119a]
1300 | 38000 | 9430 |  |  |  | OC(CC1CCCCC1)c1c(Br)ccc2cncn12 (single isomer, unassigned) [Example A119b]
9 | 8800 | 92 |  |  |  | OC(CC1CCCCC1)c1c(I)ccc2cncn12 (single isomer, unassigned) [Example A124a]
1100 | 95000 | > 10000 |  |  |  | OC(CC1CCCCC1)c1c(I)ccc2cncn12 (single isomer, unassigned) [Example A124b]
15 | 4500 | 138 |  |  |  | OC(c1c(I)ccc2cncn12)C1CCCCC1 (single isomer, unassigned) [Example A125a]
12000 | 46000 | > 10000 |  |  |  | OC(c1c(I)ccc2cncn12)C1CCCCC1 (single isomer, unassigned) [Example A125b]
36 | 14000 | 156 |  |  |  | OC(c1c(C2CC2)ccc2cncn12)C1CCCCC1 (single isomer, unassigned) [Example A126a]
6800 | 74000 | > 10000 |  |  |  | OC(c1c(C2CC2)ccc2cncn12)C1CCCCC1 (single isomer, unassigned) [Example A126b]
17 | 15000 | 169 |  |  |  | OC(CC1CCCCC1)c1c(C(F)(F)F)ccc2cncn12 (single isomer, unassigned) [Example A127a]
3200 | 25000 | 8010 |  |  |  | OC(CC1CCCCC1)c1c(C(F)(F)F)ccc2cncn12 (single isomer, unassigned) [Example A127b]

IC50 [1, 4] [nM] | IC50 [2, 4] [nM] | EC50 [3, 4] [nM] | IC50 [1, 5] [nM] | IC50 [2, 5] [nM] | EC50 [3, 5] [nM] | Compound
14 | 1700 | 38 |  |  |  | OC(c1c(C2CC2)ccc2cncn12)C1CCCCC1 (single isomer, unassigned) [Example A129a]
21000 | 37000 | > 10000 |  |  |  | OC(c1c(C2CC2)ccc2cncn12)C1CCCCC1 (single isomer, unassigned) [Example A129b]
20 | 690 | 274 |  |  |  | OC(c1c(Cl)c(Cl)cc2cncn12)C1CCCCC1 (single isomer, unassigned) [Example A143a]
3400 | 14000 | 6100 |  |  |  | OC(c1c(Cl)c(Cl)cc2cncn12)C1CCCCC1 (single isomer, unassigned) [Example A143b]
> 100000 | 23000 | > 10000 |  |  |  | OC(CC1CCCCC1)c1c(Cl)c(Cl)cc2cncn12 (single isomer, unassigned) [Example A144a]
14 | 240 | 291 |  |  |  | OC(CC1CCCCC1)c1c(Cl)c(Cl)cc2cncn12 (single isomer, unassigned) [Example A144b]
 |  |  | 15 | 150 | 995 | Cc1ccn2cncc2c1C(O)C1CCCCC1 (single isomer, unassigned) [Example B102a]
 |  |  | 3100 | 31000 | > 10000 | Cc1ccn2cncc2c1C(O)C1CCCCC1 (single isomer, unassigned) [Example B102b]
 |  |  | 47 | 1300 | 136 | OC(c1c(C2CC2)ccn2cncc12)C1CCCCC1 (single isomer, unassigned) [Example B107a]
 |  |  | 21000 | 11000 | > 10000 | O[C@@H](c1c(C2CC2)ccn2cncc12)C1CCCCC1 (single isomer, unassigned) [Example B107b]
150 | 260 | > 10000 |  |  |  | OC(c1cccc2cncn12)C1CCCCC1 (stereo not shown) [Example A001, Cyclohexyl(imidazo[1,5-a]pyridin-5-yl)methanol]
110 | 260 | > 10000 |  |  |  | OC(c1cccc2cncn12)C1CCCCCC1 (stereo not shown) [Example A009, Cycloheptyl(imidazo[1,5-a]pyridin-5-yl)methanol]
540 | 260 | > 10000 |  |  |  | c1cc(CC2CCCCC2)n2cncc2c1 [Example A015, 5-(cyclohexylmethyl)imidazo[1,5-a]pyridine]
8900 | 350 | > 10000 |  |  |  | FC(c1cc(Cl)cc2cncn12)C1CCC(F)(F)CC1 (stereo not shown) [Example A020, 7-chloro-5-((4,4-difluorocyclohexyl)fluoromethyl)imidazo[1,5-a]pyridine]
890 | 230 |  |  |  |  | O[C@@H](c1cc(Cl)cc2cncn12)C1CCCCC1 [Example A101b, (R)-(7-chloroimidazo[1,5-a]pyridin-5-yl)(cyclohexyl)methanol]
260 | 420 |  |  |  |  | OC(CC1CCCCC1)c1cc(C(F)(F)F)cc2cncn12 (stereo not shown) [Example A114, 2-cyclohexyl-1-(7-(trifluoromethyl)imidazo[1,5-a]pyridin-5-yl)ethan-1-ol]
210 | 75000 |  |  |  |  | OC(c1c(C(F)(F)F)ccc2cncn12)C1CC1 (stereo not shown) [Example A132, cyclopropyl(6-(trifluoromethyl)imidazo[1,5-a]pyridin-5-yl)methanol]
130 | 200 |  |  |  |  | OC(c1c(Cl)c(Br)cc2cncn12)C1CC1 (stereo not shown) [Example A150, (7-bromo-6-chloroimidazo[1,5-a]pyridin-5-yl)(cyclooropyl)methanol]
1000 | 1600 |  |  |  |  | OC(c1c(Cl)c(C(F)(F)F)cc2cncn12)C1CCCCC1 (stereo not shown) [Example A155, (6-chloro-7-(trifluoromethyl)imidazo[1,5-a]pyridin-5-Yl)(cyclohexyl)methanol]
 |  |  | 2000 | 810 |  | OC(c1cccn2cncc12)C1CCCC1 (stereo not shown) [Example B002, Cyclopentyl(imidazo[1,5-a]pyridin-8-yl)methanol]
 |  |  | 17000 | 3900 |  | OC(c1ccccc1)c1cccn2cncc12 (stereo not shown) [Example B004, Imidazo[1,5-a]pyridin-8-yl(phenyl)methanol]
 |  |  | 990 | 740 |  | OC(c1cccn2cncc12)C1CCCCCC1 (stereo not shown) [Example B005, Cycloheptyl(imidazo[1,5-a]pyridin-8-yl)methanol]
